The text below walks through data of patent publication US20130245110A1, “USE FOR CANNABINOIDS” (priority 2008, published 2013).

Each structure is given as a SMILES string. Where “and” joins values, the source holds several entries; their conditions need not be identical. Equal entries are not always repeated.

Data set [1] concerns C57B1/6 ob/ob mouse. As to the kind of experiment: Fed plasma HDL-cholesterol. Type of data set: in vivo. To be noted: ob/ob mice; for Fed HDL cholesterol day 28: individual values; for percentage HDL cholesterol day 28: HDL as percentage of total cholesterol. The protocol:
The following are a battery of tests used to elicit the effects of drugs on diseases including type I or II diabetes, obesity, dyslipidaemia, related metabolic disorders and cardiovascular disease. • a) Body weight: Bodyweights of all mice were measured twice weekly during the study. • b) Food intake: Food intake was measured by weight difference taking account of food wastage in the bottom of the cage. • c) Measurement of water consumption: Water intake was calculated daily for each animal, during the treatment period, by weight difference of the water bottle. • d) Oral Glucose Tolerance Test (OGTT): Glucose was dissolved in water (3 g/10 ml) and given to the mice orally at a rate of 3 g/kg. […] Blood samples were also taken at −30 minutes for insulin analysis. • e) Blood Glucose analysis: Duplicate 20 μl samples of blood of were taken for each individual sample and placed in a 96-well assay plate. To each well was added 180 μl aliquots of glucose oxidase reagent. Samples were mixed and then left for approximately 30 minutes. Samples were then analysed automatically using a SpectraMax-250 and SoftMax Pro software. • f) Plasma preparation: Blood was collected for the measurement of i) plasma insulin, ii) cholesterol, iii) free fatty acids or iv) triglyceride concentration. • i. Plasma insulin analysis: Plasma insulin was measured using 5 μl of plasma, compared with a mouse insulin standard using a 96-well micro-assay plate • ii. Plasma cholesterol analysis: To each sample was added 200 μl of infinity cholesterol liquid stable reagent. The samples were mixed and incubated for 5 minutes before reading at dual wavelengths of 500 and 660 nm. • iii. Plasma free fatty acids: 5 μl samples of plasma were measured into a 96-well assay plate, to which was added 0.2 ml of reagents NEFA C • iv. Plasma triglycerides analysis: To each well 200 μl aliquots of triglycerides reagent. […] Comparison with a calibrated standard allowed identification of types of tissue by their density. Dedicated software was using to quantify amounts of bone and fat. The mice were lightly anaesthetised, sufficient to keep them quiescent during this non-invasive technique. • h) Energy expenditure measurements: Energy expenditure was measured by open circuit indirect calorimetry with mice in their home cages. For studies of 24 h energy expenditure, mice were dosed with their allocated treatment and then measurements commenced. […] Plasma leptin was measured in fed mice using the Crystal Chem Elisa assay. • j) Plasma adiponectin: Adiponectin exerts some of its weight reduction effects via the brain. This is similar to the action of leptin, but the two hormones perform complementary actions, and can have additive effects. Plasma adiponectin was measured in overnight fasted mice using the 96-well B-Bridge Elisa assay. • k) Plasma HDL-cholesterol: Plasma HDL-cholesterol was measured in fed mice using the kit from Trinity Biotech. • l) 24 h blood glucose profile: This was determined in order to ensure that changes in the diurnal control of blood glucose were detected. Thus blood samples were obtained at three hourly intervals throughout a continuous 24 h period. • m) Plasma haemoglobin AIC: Samples (10 μl) were analysed using the AIC. […] The homogenate was then extracted overnight at 4° C. and centrifuged at 2000 g for 5 min. • o) Pancreatic islet histology: […] sections were cut using a Leica RM2125 rotary microtome, transferred to positively-charged glass slides and dried overnight at 42° C. Morphology was assessed using hematoxylin and eosin staining. • p) Liver glycogen: After centrifugation (3000×g for 15 min), an aliquot of the supernatant (10 μl) is assayed using the glucose oxidase method. […] 1 ml of chloroform is added and tubes vortexed and left at 4° C. for 2 h with vortexing every 30 min. 200 μl of 0.9% sodium chloride is added and after thorough vortexing, the mixture is centrifuged at 300×g for 5 min.

For the next data set, the system named is aorta. The experiment in a line: Chronic treatment of rats, vascular responses in isolated arteries. Type of data set: in vivo, rat. The conditions noted are these: aorta of rats treated for 2 weeks.
For data set [2], the system named is C57B1/6 ob/ob mouse. The experiment in a line: Thermic effect of a Complan meal: 3-hour energy expenditure. Also on record: unit not given here. The conditions noted are these: ob/ob mice, day 17. Type of data set: in vivo.
For data set [3], the system named is dietary induced obese (DIO) mouse model. As to the kind of experiment: Thermic response to food (energy expenditure after Complan meal), chronic dosing study. The arrangement: Thermic response to food: unit not given here. Type of data set: in vivo. To be noted: for Thermic response to food: listed as pure THCV. From the text:
(§1) Once the acute studies were complete the mice were grouped in two groups of five mice for the chronic dosing study. Dosing was daily by oral gavage at 09:00-10:00.
Energy expenditure consists of basal metabolic rate, exercise-induced energy expenditure, and non-exercise thermogenesis. The latter is the most likely area to be affected by anti-obesity agents. Non-exercise thermogenesis includes the thermic response to food, which in rodents can be measured by examining energy expenditure in response to a meal. This was measured after an oral dose of complan (see methods).

For data set [4] the test system is unchanged. As to the kind of experiment: Growth (body weight, nose-anus length). The format is in vivo. To be noted: DIO mice; chronic dosing.
Data set [5] has the same test system. The experiment in a line: 24 h energy expenditure by indirect calorimetry, chronic dosing study. Type of data set: in vivo. To be noted: DIO mice.
From the text: The C57B1/6 mouse fed on a high fat diet for around 12 weeks is a standard model used to evaluate agents likely to affect metabolic disease including obesity, type II diabetes and dyslipidaemia. Thus both potential anti-obesity effects and effects on diabetic and dyslipidaemia parameters will be measured.
as §1

Where [6] appears, read: 3.0 mg·kg−1 daily oral gavage (combination: both 3.0).
[7] abbreviates: 0.3 mg·kg−1 daily oral gavage (combination: both 0.3).

With `C=C(C)[C@@H]1CCC(C)=C[C@H]1c1c(O)cc(CCCCC)cc1O` [CBD, cannabidiol], the “Fed HDL cholesterol day 28” value in the data set on C57B1/6 ob/ob mouse [1] (setting [6]) was “increasing the amount and 3.31 and 3.00 and 3.36 and 3.63 and 2.98 and 3.38 and 3.18”. Moreover, in the data set with C57B1/6 ob/ob mouse [1] (3.0 mg·kg−1 daily oral gavage (combination: both 3.0), listed as Pure CBD), the “Fed HDL cholesterol day 28” value is on record as “increasing the plasma HDL-cholesterol concentration”. Also, in the data set on aorta, the “Maximal response to methoxamine” value is reported as 1.63±0.21 g increase tension and the “Potency of acetylcholine (pEC50)” value came to 5.37±0.40. Also, the “Thermic effect of a meal: 3-hour energy expenditure per animal” value with C57B1/6 ob/ob mouse [2] (3.0 mg/kg daily oral gavage (combination: both 3.0 mg/kg), listed as pure CBD) was “did not significantly increase energy expenditure”.

With `CCCc1cc(O)c2c(c1)OC(C)(C)[C@@H]1CCC(C)=C[C@@H]21` [THCV, tetrahydrocannabivarin], the “Thermic response to food” value in data set [3] (DIO mice, days 15-17, 0.3 mg·kg−1 p.o., Hour 0.22) is 0.67 and 0.91 and 1.26; in data set [3] (DIO mice, days 15-17, 0.3 mg·kg−1 p.o., Hour 0.44), 1.78 and 1.70 and 1.98; in data set [3] (DIO mice, days 15-17, 0.3 mg·kg−1 p.o., Hour 0.67), 2.30 and 2.06 and 2.49; in data set [3] (DIO mice, days 15-17, 0.3 mg·kg−1 p.o., Hour 0.89), 2.51 and 2.42; in data set [3] (DIO mice, days 15-17, 0.3 mg·kg−1 p.o., Hour 1.11), 2.51 and 2.74 and 2.64; in data set [3] (DIO mice, days 15-17, 0.3 mg·kg−1 p.o., Hour 1.33), 2.50 and 2.82 and 2.67. The “Thermic response to food” value is 2.53 and 2.81 and 3.13 in data set [3] (DIO mice, days 15-17, 0.3 mg·kg−1 p.o., Hour 1.56); 2.54 and 2.76 and 3.31 in data set [3] (DIO mice, days 15-17, 0.3 mg·kg−1 p.o., Hour 1.78); 2.45 and 2.62 and 3.18 in data set [3] (DIO mice, days 15-17, 0.3 mg·kg−1 p.o., Hour 2.00); 2.61 and 2.74 and 3.44 in data set [3] (DIO mice, days 15-17, 0.3 mg·kg−1 p.o., Hour 2.22); 2.71 and 2.74 and 3.18 in data set [3] (DIO mice, days 15-17, 0.3 mg·kg−1 p.o., Hour 2.44); 2.66 and 2.83 and 3.10 in data set [3] (DIO mice, days 15-17, 0.3 mg·kg−1 p.o., Hour 2.67). Also, the “Thermic response to food” value in data set [3] (DIO mice, days 15-17, 0.3 mg·kg−1 p.o., Hour 2.89) is 2.71 and 3.01 and 3.09; in data set [3] (DIO mice, days 15-17, 0.3 mg·kg−1 p.o., Hour 3.11), 2.68 and 3.16 and 3.02; in data set [3] (DIO mice, days 15-17, 0.3 mg·kg−1 p.o., Hour 3.33), 2.68 and 3.34 and 3.04; in data set [3] (DIO mice, days 15-17, 0.3 mg·kg−1 p.o., Hour 4.00) it was 2.70 and 3.49 and 3.13; in data set [3] (mouse, in vivo, po) it was 2.61 and 3.49 and 3.02 and 2.43 and 3.48 and 3.03. Moreover, the “Thermic response to food, effect in words” value in data set [3] (DIO mice, days 15-17, chronic-study doses (rimonabant 10, pure THCV 0.3 mg·kg−1 p.o.)) is listed as “have an affect over 2 h”. The “Fed HDL cholesterol day 28” value in the data set with C57B1/6 ob/ob mouse [1] (setting [7]) is 2.16 (3×) and 2.35 and 2.33 and 2.21 and 2.25 and 2.14; in the data set on C57B1/6 ob/ob mouse [1] (setting [6]), 2.17 and 2.16 and 2.24 and 2.51 and 2.98 and 2.94 and 2.57 and 2.28. Also, the “percentage HDL cholesterol day 28” value in the data set with C57B1/6 ob/ob mouse [1] (setting [7]) was 30.4% and 25.1% and 33.6% and 39.3% and 37.5% and 34.3% and 37.9% and 38.0%; in the data set with C57B1/6 ob/ob mouse [1] (setting [6]) it was 34.5% and 31.1% and 34.0% and 40.4% and 41.3% and 45.6% and 33.6% and 32.4%. For the same compound, the Effect on growth entry in data set [4] is recorded as “without any effect on growth”. The “Potency on energy expenditure relative to rimonabant, on a dosage basis” value in data set [5] is listed as “at least 10 fold”. The “Effectiveness on energy expenditure compared with rimonabant” value in data set [5] (high dose THCV-BDS, pure THCV 0.3 mg kg−1) was “more effective than rimonabant”. For the same compound, the “Thermic effect of a meal: 3-hour energy expenditure per animal” value is 8.18 and 7.04 in the data set on C57B1/6 ob/ob mouse [2] (0.3 mg/kg daily oral gavage (combination: both 0.3 mg/kg)); 8.94 and 8.79 in the data set with C57B1/6 ob/ob mouse [2] (3.0 mg/kg daily oral gavage (combination: both 3.0 mg/kg)); “significant effect” in the data set on C57B1/6 ob/ob mouse [2] (3.0 mg/kg daily oral gavage (combination: both 3.0 mg/kg), listed as pure THCV).
